Measurements: publication PMC11558679, “Artificial Zymogen Based on Protein–Polymer Hybrids” (Biomacromolecules, 2024)
“And” between values parts separate entries of the source, which are not always exact repeats. Identical values can stand only once. Like-named read-outs stand apart in the source and are kept apart here. Square brackets hold non-standard residues; d marks the D form. Peptide text beside a SMILES is read from it. * marks the point of attachment. OEGMA = oligo(ethylene glycol) methacrylate; PEG4 = NCCOCCOCCOCCOCCC(=O)O; Tos = Cc1ccc(S(=O)(=O)*)cc1; Isobutyryl = CC(C)C(=O)*; NHBn = c1ccc(CN*)cc1; Sar = CNCC(=O)O

What was measured:
Assay type in all cases: biochemical, bovine
[1] = target: T1, native trypsin (Bos taurus, UniProt P00760); assay: Inhibition of native trypsin by model peptide inhibitor and macromonomer; settings: for Ki: substrate Tos-GPR-pNA, 100 mM Tris-HCl and 20 mM CaCl2 (pH 8.0), 37 °C, [TR]0 = 8.4 nM, from secondary plot KM/Vmax app vs [I]0; for Km: read-out: apparent KM
T1 construct: purchased Sigma-Aldrich; host or cells: bovine pancreas
T1 sequence (P00760 24-246): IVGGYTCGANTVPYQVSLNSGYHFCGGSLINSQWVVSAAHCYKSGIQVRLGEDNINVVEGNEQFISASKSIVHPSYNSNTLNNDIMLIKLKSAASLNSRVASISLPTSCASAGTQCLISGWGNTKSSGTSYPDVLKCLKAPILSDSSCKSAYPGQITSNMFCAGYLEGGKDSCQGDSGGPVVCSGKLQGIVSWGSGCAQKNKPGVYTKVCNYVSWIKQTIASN
Excerpt: (§1) Co mparison of K M of peptide substrates and K i of model peptide inhibitors and ma cro mono mers against native trypsin and chymotrypsin.
(§2) By observing the initial rate of enzyme activity in the presence of th e peptide inhibitor or macromonomer, the K i value of the inhibitor peptide and macromonomers can be determined (Figures S9 for native trypsin,and S14 for native ch ymotrypsin). The apparent KM and Vmax values are obtained b y si multaneousl y mixing nat ive trypsin or ch ymotr ypsin, a peptide substrat e, and a peptide inhibitor, and then monitoring the pNA produced b y enzymatically catal yzed hydrol ysis of the p eptide substrate. The apparent KM and Vmax values were calculated using EnzFitter with Michaelis-Menten curve fitting of substrate against initial velocity plots ( Fi g u re S10 and S12 and Table S1 and S2 for native trypsin, and Figure S15 and S17 and T ab l e S3 and S4 for native ch ymotr ypsin ). The plot of K M ass/Vma x app versus [I]0 or [macromonomers]0 yields a straight line with a y-intercept of K M/Vmax and a slope of K M/(Vmax ·Ki) (Figures S11 and S13 for native tr ypsin and S1 6 and S18 for native ch ymotrypsin, respsctiver y ). The inhibition constant (Ki) of the peptide inhibi tor or macromonomer was calculated b y simply dividing the y -inter cept […]
(1 picture or pasted object on this page, not shown here)
Table S1. Apparent KM a nd Vma x values for native trypsin incubated with Tos-GPR-pNA (substrate) and Tos-GPRP -NHBzl (inhibitor) at 37 °C in 100 mM Tris-HCl and 20 mM CaCl2 buffer (pH 8.0) […]
Buffer: 100 mM Tris-H Cl a nd 20 mM Ca Cl2 (pH 8.0) at 37 °C, [TR]0 = 8.4 nM, [TosGPRpNA]0 = 0 – 302 µ M a nd [TosGP RP Bzl]0 = 0 – 500 µM, Monitor Abs at 412 nm.
Figure S11. Secondary plot with calculated apparent K M and Vmax values were used to determine inhibition constants of the peptide inhibitor towards native trypsin.
Figure S12. Michaelis-Menten Plots adding a the macromonomer containing a CT -cleavable and a TR-inhibiting peptides (T o s GPRPr o -PEG4-AAPFAA OE GMA) to a native trypsin solution.
Table S2. Apparent KM a nd Vma x values for native trypsin incubated with Tos-GPR-pNA (substrate) and the macromonomer containing a CT -cleavable and a TR-inhibiting peptides (TosGPRPro-PEG4-AAPFAA OEGMA) at 37 °C in 100 mM Tris -HCl and 20 mM CaCl2 buffer (pH 8.0) .
Buffer: 100 mM Tris-H Cl a nd 20 mM Ca Cl2 (pH 8.0) at 37 °C, [TR]0 = 8.4 nM, [TosGPRpNA]0 = 0 – 241 µ M a nd [ macro mono mer]0 = 0 – 200 µM, Monitor Abs at 412 nm.

[2] = Biocatalytic assay (Michaelis–Menten) of TR and TR hybrids with Tos-Gly-Pro-Arg-pNA
Method: N-Tosyl-L-Gly-L-Pro-L-Arg-p-nitroanilide was used as a substrate for enzyme bioactivity assays. In a cuvette, 0.1 M Tris HCl and 20 mM calcium chloride buffer (890–990 μL, pH 8.0), substrate (0–100 μL, 2 mg/mL in DMSO), and enzyme (10 μL, 0.02 mg TR/mL in 100 mM Tris–HCl and 20 mM calcium chloride (pH 8.0), 8.4 nM as final concentration) were mixed for enzyme bioactivity assays. The rate of hydrolysis was determined by recording the increase in absorbance at 412 nm for the first 45 s after mixing. KM and kcat values were calculated using Enzfitter software when plotting substrate concentration versus initial hydrolysis velocity. […]
Table S5. Char acterization and enzymatic activity of TR-pCBMA and inhibited pro- T R pol ymer h ybr i ds with different linkers between the inhibitory and cleavable peptide moieties.
SEC-M ALLS anal ysi s Michaelis-Menten parameters d
Mnb Mwb Đb DPc KM kcat kcat/KM samples kg mol-1 kg mol-1 (CBM A/inhibitor) (µM) (s-1) (µM-1 s-1) […]
SEC -MALLS and 1H NMR spectra. d conditions: [TR]0 = 8.4 nM, [Tos-GPR-pNA]0 = 0 - 302 µM, buffer 100 mM Tris-HCl and 20 mM CaCl2 (pH 8.0) at 37 °C. […]

[3] = target: T2, native chymotrypsin (Bos taurus, UniProt P00766); assay: Inhibition of native chymotrypsin by model peptide inhibitor and macromonomer; settings: for KM/Vmax / apparent Vmax / kcat / kcat/KM / Km: [sucAAPFpNA]0 = 0–768 µM; for Km: read-out: apparent KM
T2 construct: α-Chymotrypsin from bovine pancreas, Type II (CT); purchased Sigma-Aldrich; host or cells: bovine pancreas
Excerpt: as §1, §2
Figure S1 5 .Michaelis -Menten Plots adding a peptide inhibitor to a native c hymot r yps i n s ol ut i on.
Table S3. Apparent KM a nd Vma x values for native […] incubated with suc-AAPF -pNA ( subst r at e) and IB -AAPFSar-OMe (inhibitor) at 37 °C in 100 mM sodium phosphate buffer (pH 8.0) […]
Buffer: 100 mM sodium phosphate (pH 8.0) at 37 °C, [CT]0 = 40 nM, [sucAAPFpNA]0 = 0 – 768 µ M and [IBAAPFSarOMe]0 = 0 – 500 µM, Monitor Abs at 412 nm.
Table S4. Apparent KM a nd Vma x values for native […] incubated with suc-AAPF -pNA ( subst r at e) and macromonomer containing a TR cleavable and CT inhibiting peptides
(IBAAPFSarPEG4GPRGGOEGMA) at 37 °C in 100 mM sodium phosphate buffer (pH 8.0) . […]
macro mono mer]0 = 0 – 400 µM, Monitor Abs at 412 nm.
Figure S18. Michaelis -Menten Plots adding a macromonomer containing a TR cleavable and CT inhibiting peptides (IBAAPFSarPEG4GPRGGOEGMA) to a native chymotrypsin solution.

[4] = [macromonomer]0 = 50 µM, [TosGPRpNA]0 = 0–241 µM
[5] = [macromonomer]0 = 100 µM, [TosGPRpNA]0 = 0–241 µM
[6] = [macromonomer]0 = 150 µM, [TosGPRpNA]0 = 0–241 µM
[7] = [macromonomer]0 = 200 µM, [TosGPRpNA]0 = 0–241 µM
[8] = [TR]0 = 8.4 nM, [Tos-GPR-pNA]0 = 0–302 μM, 100 mM Tris–HCl and 20 mM CaCl2 (pH 8.0), 37 °C, absorbance 412 nm, first 45 s, Enzfitter

Molecule `Cc1ccc(S(=O)(=O)NCC(=O)N2CCC[C@H]2C(=O)N[C@@H](CCCNC(=N)N)C(=O)N2CCC[C@H]2C(=O)NCc2ccccc2)cc1` [Tos-Gly-Pro-Arg-Pro-NHBzl] (Tos-GPRP-NHBn) has a KM/Vmax ([1]; [inhibitor]0 = 125 µM, [TosGPRpNA]0 = 0–302 µM) of 48.3 ± 4.1 s, a KM/Vmax ([1]; [inhibitor]0 = 250 µM, [TosGPRpNA]0 = 0–302 µM) of 56.3 ± 5.0 s and a KM/Vmax ([1]; [inhibitor]0 = 375 µM, [TosGPRpNA]0 = 0–302 µM) of 73.4 ± 3.7 s. It also gave a KM/Vmax ([1]; [inhibitor]0 = 500 µM, [TosGPRpNA]0 = 0–302 µM) of 84.3 ± 6.0 s and a Ki ([1]; native TR) of 430 µM.

“N-Tosyl-glycyl-L-prolyl-L-arginine p-nitroanilide acetate salt [Tos-Gly-Pro-Arg-pNA, reference compound]” gave a Km ([2]; rounded value in comparison with Ki, read-out: KM of the peptide substrate for native TR) of 20 µM.

For “IB-Ala-Ala-Pro-Phe-Sar-PEG4-Gly-Pro-Arg-Gly-Gly-OEGMA [IBAAPFSarPEG4GPRGGOEGMA]”, the KM/Vmax ([3]; [macromonomer]0 = 100 µM) was 61.8 ± 6.2 s, the “apparent Vmax” value ([3]; [macromonomer]0 = 100 µM) was 1.25 ± 0.03 µM/s and the kcat ([3]; [macromonomer]0 = 100 µM) was 34.8 ± 0.8 s⁻¹. The kcat/KM ([3]; [macromonomer]0 = 100 µM) was 0.45 ± 0.05 µM⁻¹ s⁻¹, the Km ([3]; [macromonomer]0 = 100 µM) was 77.5 ± 7.6 µM and the KM/Vmax ([3]; [macromonomer]0 = 200 µM) was 65.3 ± 6.9 s. The “apparent Vmax” value ([3]; [macromonomer]0 = 200 µM) was 1.25 ± 0.03 µM/s, the kcat ([3]; [macromonomer]0 = 200 µM) was 34.9 ± 0.8 s⁻¹ and the kcat/KM ([3]; [macromonomer]0 = 200 µM) was 0.43 ± 0.04 µM⁻¹ s⁻¹. The Km ([3]; [macromonomer]0 = 200 µM) was 82.1 ± 8.4 µM, the KM/Vmax ([3]; [macromonomer]0 = 300 µM) was 72.9 ± 7.1 s and the “apparent Vmax” value ([3]; [macromonomer]0 = 300 µM) was 1.18 ± 0.03 µM/s. For the same molecule, the kcat ([3]; [macromonomer]0 = 300 µM) was 32.8 ± 0.7 s⁻¹, the kcat/KM ([3]; [macromonomer]0 = 300 µM) was 0.38 ± 0.73 µM⁻¹ s⁻¹ and the Km ([3]; [macromonomer]0 = 300 µM) was 86.1 ± 8.1 µM. For the same molecule, the KM/Vmax ([3]; [macromonomer]0 = 400 µM) was 89.4 ± 11.8 s, the “apparent Vmax” value ([3]; [macromonomer]0 = 400 µM) was 1.12 ± 0.04 µM/s and the kcat ([3]; [macromonomer]0 = 400 µM) was 31.0 ± 1.0 s⁻¹. The kcat/KM ([3]; [macromonomer]0 = 400 µM) was 0.31 ± 0.04 µM⁻¹ s⁻¹, the Km ([3]; [macromonomer]0 = 400 µM) was 99.7 ± 12.6 µM and the “Ki relative to KM (90 μM) of suc-Ala-Ala-Pro-Phe-pNA” value ([3]; native CT) was 2.8 fold. It also gave a Ki ([3]; native CT, substrate suc-AAPF-pNA, 100 mM sodium phosphate (pH 8.0), 37 °C, [CT]0 = 40 nM, from secondary plot KM/Vmax app vs [I]0, read-out: Ki) of 260 µM.

`COC(=O)CN(C)C(=O)[C@H](Cc1ccccc1)NC(=O)[C@@H]1CCCN1C(=O)[C@H](C)NC(=O)[C@H](C)NC(=O)C(C)C` [isobutyryl-Ala-Ala-Pro-Phe-Sar-OMe] (Isobutyryl-AAPF[Sar]-OMe) showed a Ki [3] of 660 µM, a KM/Vmax ([3]; [inhibitor]0 = 125 µM) of 62.9 ± 6.8 s and a KM/Vmax ([3]; [inhibitor]0 = 250 µM) of 75.9 ± 11.5 s. The KM/Vmax ([3]; [inhibitor]0 = 375 µM) was 84.8 ± 12.7 s and the KM/Vmax ([3]; [inhibitor]0 = 500 µM) was 99.6 ± 11.7 s.

“Tos-Gly-Pro-Arg-Pro-PEG4-Ala-Ala-Pro-Phe-Ala-Ala-OEGMA (Tos-GPRP[PEG4]AAPFAA-{OEGMA}) [TosGPRPro-PEG4-AAPFAA OEGMA]” gave a Ki ([1]; native TR) of 150 µM.

In the case of “Tos-Gly-Pro-Arg-Pro-PEG4-Ala-Ala-Pro-Phe-Ala-Ala-OEGMA [TosGPRPro-PEG4-AAPFAA OEGMA]”, the KM/Vmax [1, 4] is reported as 62.9 ± 7.3 s, the “apparent Vmax” value [1, 4] is reported as 0.45 ± 0.02 µM/s and the kcat [1, 4] is reported as 53.4 ± 2.3 s⁻¹. For the same molecule, the kcat/KM [1, 4] was 1.89 ± 0.31 µM⁻¹ s⁻¹, the Km [1, 4] was 28.2 ± 4.5 µM and the KM/Vmax [1, 5] was 77.9 ± 6.3 s. The “apparent Vmax” value [1, 5] was 0.24 ± 0.01 µM/s, the kcat [1, 5] was 28.7 ± 0.7 s⁻¹ and the kcat/KM [1, 5] was 1.53 ± 0.17 µM⁻¹ s⁻¹. For the same molecule, the Km [1, 5] was 18.8 ± 2.1 µM, the KM/Vmax [1, 6] was 86.3 ± 7.8 s and the “apparent Vmax” value [1, 6] was 0.31 ± 0.01 µM/s. For the same molecule, the kcat [1, 6] was 36.5 ± 1.4 s⁻¹, the kcat/KM [1, 6] was 1.38 ± 0.18 µM⁻¹ s⁻¹ and the Km [1, 6] was 26.4 ± 3.2 µM. The KM/Vmax [1, 7] was 97.7 ± 12.1 s, the “apparent Vmax” value [1, 7] was 0.36 ± 0.02 µM/s and the kcat [1, 7] was 43.3 ± 2.1 s⁻¹. The kcat/KM [1, 7] was 1.22 ± 0.21 µM⁻¹ s⁻¹, the Km [1, 7] was 35.5 ± 6 µM and the “Ki relative to KM (20 μM) of Tos-Gly-Pro-Arg-pNA” value ([1]; native TR) was roughly 7.5 fold.

B1: trypsin from bovine pancreas, Type I (protein, UniProt P00760 24-246, looked up)
Serine protease 1: T1 sequence (P00760 24-246)
notes: trypsin from bovine pancreas, Type I (TR), Sigma-Aldrich
With B1 the kcat [2, 8] was 63.5 s^–1 and 63.5 ± 1.3 s^–1, the kcat/KM [2, 8] was 2.87 ± 0.25 μM^–1 s^–1 and the Km ([2]; [TR]0 = 8.4 nM, [Tos-GPR-pNA]0 = 0–302 μM, 100 mM Tris–HCl and 20 mM CaCl2 (pH 8.0), 37 °C, absorbance 412 nm, first 45 s, Enzfitter, read-out: KM) was 22.2 ± 1.9 µM.
